Experimental data: patent US9249148B2, “Tris(hetero)arylpyrazoles and use thereof” (AICURIS GMBH & CO. KG, priority 2012, dated 2016)

Key:
Format in all cases: cell-based
HIV-1NL4-3 K103N-Y181C = test: Luminescence Reduction Assay, luciferase reporter virus with resistance mutations in MT4 cells; conditions: Human immunodeficiency virus 1, MT4, read-out: EC50 (μM) MT4 cells HIV-1NL4-3 K103N-Y181C 2% FBS
From the text: (§1) For this assay, HIV-1NL4-3 reporter viruses are used which carry the luciferase164 gene (lu164) in place of the nef gene. The viruses are generated by transfection of 293T cells with the corresponding proviral pNL4-3 plasmid (Lipofectamine Reagent, Invitrogen, Karlsruhe, Germany). Starting from the proviral plasmid DNA, viruses with defined resistance mutations (single or combined) are produced in the reverse transcriptase gene using the “QuikChange II XL Site-Directed Mutagenesis Kit” (Stratagene, Cedar Creek, Tex., USA). Resistance mutations include, among others: L74V, A98G, A98S, L100I, K101E, K103N, V106A, V106I, V106M, V108I, V108A, E138K, V179I, V179D, V179E, Y181C, Y181I, Y188L, G190A, G1905, H221Y, P225H, F227C, F227L, F227V, M230I, M230L, L234I, P236L, N348I, T369A, T369I, T369V. MT4 cells infected with these reporter viruses (NIH AIDS Research and Reference Reagent Program) secrete luciferase into the medium, which enables the luminometric quantification of the virus replication.
(§2) For starting a 96-well MTP, 3 million MT4 cells are pelleted, suspended in 1 ml RPMI 1640 medium without phenol red (Invitrogen, Karlsruhe, Germany)/10% FBS/2 mM L-glutamine/1% Pen/Strep (Invitrogen, Karlsruhe, Germany), and incubated for 2 hours at 37° C. with a suitable quantity of the relevant HIV-1NL4-3 reporter virus (pellet infection). Non-adsorbed viruses are then washed out, and the infected cells are pelleted again and suspended in 8 ml RPMI 1640 medium without phenol red/2% or 10% FBS/2 mM L-glutamine/1% Pen/Strep. From this, 90 μl per well is pipetted into a white 96-well MTP to 10 μl of test substance at a suitable level of dilution. In order to avoid edge effects, the edge wells of the MTP are not used for substance dilutions. The second vertical row of the MTP contains only infected cells (virus control) and the eleventh vertical row only non-infected cells (cell control), each in RPMI 1640 medium without phenol red/2% or 10% FBS/2 mM L-glutamine/1% Pen/Strep. The remaining wells of the MTP contain the compounds in accordance with the invention in various concentrations, starting from the third vertical row, from which the test substances are diluted in 3-step sequences up to the tenth vertical row by a factor of 3^7. The test substances are dissolved in DMSO; the final DMSO concentration in the test formulation is 1%.

HIV-1NL4-3 wildtype = test: Luminescence Reduction Assay, luciferase reporter virus in MT4 cells; conditions: Human immunodeficiency virus 1, MT4, read-out: EC50 (μM) MT4 cells HIV-1NL4-3 wildtype 2% FBS
From the text: as §1, §2

HIV-1LAI wildtype = test: alamarBlue Viability Assay with HIV-1LAI-infected MT4 cells; conditions: Human immunodeficiency virus 1, 10% FBS
Protocol: For starting a 96-well MTP, 3 million PBLs are pelleted, suspended in 1 ml RPMI 1640 medium/10% FBS/2 mM L-glutamine/1% Pen/Strep and incubated for 2 hours at 37° C. with a suitable quantity of the relevant HIV-1LAI (NIH AIDS Research & Reference Reagent Program, Germantown, USA) (pellet infection). Non-adsorbed viruses are then washed out, and the infected cells pelleted again and suspended in 18 ml RPMI 1640 medium/10% FBS/2 mM L-glutamine/1% Pen/Strep/Interleukin-2 (40 U/ml). From this, 180 μl per well is pipetted into a 96-well MTP to 20 μl of test substance at a suitable level of dilution. Alternatively, the HIV is added after preparation of the substance dilutes in the MTP together with the cells, and is not washed out (supernatant infection). In order to avoid edge effects, the edge wells of the MTP are not used for substance dilutions. The second vertical row of the MTP contains only infected cells (virus control) and the eleventh vertical row only non-infected cells (cell control), each in RPMI 1640 medium/10% FBS/2 mM L-glutamine/1% Pen/Strep/Interleukin-2 (40 U/ml). The remaining wells of the MTP contain the compounds in accordance with the invention in various concentrations, starting from the third vertical row, from which the test substances are diluted in 3-step sequences up to the tenth vertical row by a factor of 3^7. The test substances are dissolved in DMSO; the final DMSO concentration in the test preparation is 1%. The test samples are incubated for 5 days at 37° C./5% CO2. After 5 to 7 days, 50 μl of cell-free supernatant is removed from each well to determine its p24 content using p24 ELISA (HIV-1 p24CA Antigen Capture Assay Kit, NCI-Frederick Cancer Research and Development Center, Frederick, USA). From the resulting values of the photometric analysis (450/620 nm), the EC50 values of the test substances are determined from the resulting dose-response curves using the Prism4 software (GraphPad, San Diego, Calif.) as the concentration of treated infected cells, where the p24 quantity is 50% of the untreated infected cells.
Alternatively, MT4 cells are used in place of PBLs for testing the test substances. HIV-1LAI-infected MT4 cells (MOI 0.01, supernatant infection) are incubated in accordance with the procedure described above in RPMI 1640 medium using 2% or 10% FKS/2 mM L-glutamine/1% Pen/Strep in the presence of the test substances for 5 days at 37° C./5% CO2 (10 μl diluted substance and 90 μl cells/virus per well). 10 μl alamarBlue (Invitrogen, Karlsruhe, Germany) is then added per well and the MTPs are incubated for 3 hours at 37° C. before fluorimetric evaluation is performed (544/590 nm). Using quattroWorkflow software (Quattroresearch, Martinsried, Germany), the EC50 values of the test substances are determined from the resulting dose-response curves as the concentration of treated infected cells in which the fluorescence is 50% of that of the untreated, non-infected cells.

Structure (SMILES) | EC50 (HIV-1NL4-3 K103N-Y181C) [µM] | EC50 (HIV-1NL4-3 wildtype) [µM] | EC50 (HIV-1LAI wildtype) [µM]
O=C1NCc2c1cccc2-c1cc(-c2cc(Cl)cc(OC(F)F)c2)n(-c2cccnc2)n1 [Example 18, 4-{5-[3-chloro-5-(difluoromethoxy)phenyl]-1-(pyridine-3-yl)-1H-pyrazole-3-yl}-2,3-dihydro-1H-isoindole-1-one] | 0.013 | 0.0056 | 0.0177
O=C1NCc2c1ccnc2-c1cc(-c2cc(Br)cc(OC(F)F)c2)n(-c2cccnc2)n1 [Example 19, 4-{5-[3-bromo-5-(difluoromethoxy)phenyl]-1-(pyridine-3-yl)-1H-pyrazole-3-yl}-2,3-dihydro-1H-pyrrolo[3,4-c]pyridine-1-one] | 0.0019 | 0.0003 | 0.0028
O=C1NCc2c1ccnc2-c1cc(-c2cc(Br)cc(OC(F)F)c2)n(-c2ccnc(Cl)c2)n1 [Example 20, 4-{5-[3-bromo-5-(difluoromethoxy)phenyl]-1-(2-chloropyridine-4-yl)-1H-pyrazole-3-yl}-2,3-dihydro-1H-pyrrolo[3,4-c]pyridine-1-one] | 0.004 | 0.001 | 0.0118
O=C1NCc2c1cccc2-c1cc(-c2cc(Br)cc(OC(F)F)c2)n(-c2cccnc2)n1 [Example 21, 4-{5-[3-bromo-5-(difluoromethoxy)phenyl]-1-(pyridine-3-yl)-1H-pyrazole-3-yl}-2,3-dihydro-1H-isoindole-1-one] | 0.0283 | 0.0063 | 0.0325
Cc1cc(F)cc(-c2cc(-c3nccc4c3CNC4=O)nn2-c2ccc(F)c(Cl)c2)c1 [Example 22] | 0.0077 | 0.0009 | 0.0245
Cc1cc(F)cc(-c2cc(-c3cccc4c3CNC4=O)nn2-c2ccc(F)c(Cl)c2)c1 [Example 23] | 0.0565 | 0.015 | 0.0983
N#Cc1cc(-n2nc(-c3nccc4c3CNC4=O)cc2-c2cc(F)cc(Cl)c2)ccc1F [Example 24] | 0.0003 | 0.0002 | 0.0006
N#Cc1cc(-n2nc(-c3cccc4c3CNC4=O)cc2-c2cc(F)cc(Cl)c2)ccc1F [Example 25] | 0.0112 | 0.0009 | 0.0107
O=C1NCc2c1ccnc2-c1cc(-c2cc(F)cc(Cl)c2)n(-c2cccc(Cl)c2)n1 [Example 26] | 0.0208 | 0.0017 | 0.0153
COc1cc(OC(F)(F)F)cc(-c2cc(-c3nccc4c3CNC4=O)nn2-c2ccc(F)c(Cl)c2)c1 [Example 27] | 0.0219 | 0.0384 | 0.148
Cc1ccc(-n2nc(-c3nccc4c3CNC4=O)cc2-c2cc(F)cc(Cl)c2)cc1Cl [Example 28] | 0.0291 | 0.0172 | 0.0876
O=c1[nH][nH]c2c(-c3cc(-c4cc(F)cc(Cl)c4)n(-c4ccc(F)c(Cl)c4)n3)cccc12 [Example 29] | 1.22 | 0.39 | 2.06
O=C1NCc2c1ccnc2-c1cc(-c2cc(Cl)cc(C(F)(F)F)c2)n(-c2ccc(F)c(Cl)c2)n1 [Example 30] | 0.011 | 0.0075 | 0.0881
O=C1NCc2c1ccnc2-c1cc(-c2cncc(Cl)c2)n(-c2ccc(F)c(Cl)c2)n1 [Example 31] | 0.0024 | 0.0008 | 0.0041
O=C1NCc2c1cccc2-c1cc(-c2cncc(Cl)c2)n(-c2ccc(F)c(Cl)c2)n1 [Example 32] | 0.0383 | 0.0069 | 0.0273
O=C1NCc2c1ccnc2-c1cc(-c2cccc(F)c2F)n(-c2ccc(F)c(Cl)c2)n1 [Example 33] | 0.061 | 0.0227 | 0.0641
O=C1NCc2c1cccc2-c1cc(-c2cccc(F)c2F)n(-c2ccc(F)c(Cl)c2)n1 [Example 34] | 0.458 | 0.131 | 0.75
N#Cc1cccc(-c2cc(-c3nccc4c3CNC4=O)nn2-c2ccc(F)cc2)c1 [Example 35] | 0.0317 | 0.0593 | 0.15
N#Cc1cccc(-c2cc(-c3cccc4c3CNC4=O)nn2-c2ccc(F)cc2)c1 [Example 36] | 0.0675 | 0.0848 | 0.449
O=C1NCc2c1ccnc2-c1cc(-c2cccc(Cl)c2)n(-c2cccc(C(F)(F)F)c2)n1 [Example 37] | 0.148 | 0.0288 | 0.0835
O=C1NCc2c1cccc2-c1cc(-c2cccc(Cl)c2)n(-c2cccc(C(F)(F)F)c2)n1 [Example 38] | 1.18 | 0.18 | 0.948
COc1cccc(-n2nc(-c3nccc4c3CNC4=O)cc2-c2ccnc(Cl)c2)c1 [Example 39] | 0.0692 | 0.0075 | 0.0486
COc1cccc(-n2nc(-c3cccc4c3CNC4=O)cc2-c2ccnc(Cl)c2)c1 [Example 40] | 0.499 | 0.0517 | 0.222
O=C1NCc2c1cccc2-c1cc(-c2cc(F)cc(Cl)c2)n(-c2cccc(Cl)c2)n1 [Example 41] | 0.152 | 0.0112 | 0.0807
O=C1NCc2c1ccnc2-c1cc(-c2cccc(OC(F)F)c2)n(-c2ccc(F)c(Cl)c2)n1 [Example 42] | 0.0194 | 0.0098 | 0.0717
O=C1NCc2c1ccnc2-c1cc(-c2ccc(F)c(OC(F)(F)F)c2)n(-c2cccc(Cl)c2)n1 [Example 43] | 0.2 | 0.0568 | 0.674
O=C1NCc2c1cccc2-c1cc(-c2ccc(F)c(OC(F)(F)F)c2)n(-c2cccc(Cl)c2)n1 [Example 44] | 0.458 | 0.533 | 1.91
O=C1NCc2c1ncnc2-c1cc(-c2cc(Cl)cc(OC(F)(F)F)c2)n(-c2cccnc2)n1 [Example 45] | 0.0007 | 0.0005 | 0.0045
Cc1nc2c(c(-c3cc(-c4cc(Cl)cc(OC(F)(F)F)c4)n(-c4cccnc4)n3)n1)CNC2=O [Example 46] | 0.0004 | 0.0004 | 0.0023
